In the supplement of paper PMC5412046:
Counter-ions that a name gives are not always drawn.

The compounds below were run on SB.msgc-1 (assay: AC50 for growth inhibition (viability) (log10 M); higher = less potent). Details: SB.msgc-1 (sporadic gastric cancer).
Outline: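 After 48 h with compound, plates received CellTiter-Glo for 30 min at room temperature and were read for luminescence on a ViewLux. The cells were patient-derived gastric cancer lines of hereditary or sporadic origin, plated at 500 cells in 5 μL medium per 1536 well and pinned with 23 nL compound in DMSO, at 11 threefold dilutions from a final 46 μM. For the log half-maximal activity concentration, DMSO-normalised viability was fitted with four parameters and only high-quality curve classes were kept.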

SMILES	AC50 for growth inhibition (log10 M)
CCc1cncnc1N1CCN(Cc2nc3cc(C(F)(F)F)ccc3[nH]2)CC1	-5.13
Cn1c(Nc2ccc(C(F)(F)F)cc2)nc2cc(Oc3ccnc(-c4nc(C(F)(F)F)c[nH]4)c3)ccc21 [CHIR-265]	-6.68
C[C@@H](N)c1ccc(C(=O)Nc2ccnc3[nH]ccc23)cc1	-4.78
CN(c1nccc(=O)[nH]1)C1CCN(c2nc3ccccc3n2Cc2ccc(F)cc2)CC1 [Mizolastine]	-4.53
O=C(Nc1ccccc1Br)N[C@@H]1CCN(c2ccc(C(F)(F)F)cn2)C1	-4.73
CC(C)(C)OC(=O)Nc1ccc(-c2cc(C(=O)NCCCCCCC(=O)NO)no2)cc1 [ISOX]	-5.58
COc1ccc(OC)c(-c2nnc3ccc(-c4ccc(OC)c(O[C@@H]5CCOC5)c4)nn23)c1	-4.68
CCC[S+](=O)([O-])Nc1ccc(F)c(C(=O)c2c[nH]c3ncc(Cl)cc23)c1F [PLX-4720]	-4.83
CCC(C)N1\N=C/N(C1=O)C2=CC=C(C=C2)N3CCN(CC3)C4=CC=C(OC[C@H]5CO[C@@](C[N]6C=NC=N6)(O5)C7=CC=C(Cl)C=C7Cl)C=C4 (some centres not stated) [Itraconazole]	-5.58
O=C(O)/C=C/c1ccc(O)c(O)c1 [Caffeic acid]	-4.88
CN1C(=O)/C(=C(NC2=CC=C(I)C=C2F)\C3=C1\N=C/N(C[C@@H](O)CO)C3=O)F [TAK-733]	-6.48
C[S+](=O)([O-])c1cccc(CNc2nc(Nc3ccc4c(c3)CCC(=O)N4)ncc2C(F)(F)F)c1	-4.78
CCCCCN(CCC12CC3CC(CC(C3)C1)C2)C(=O)NCCCc1ccncc1 [DE-096]	-4.73
O=C(O)Cn1nnc(-c2cc(N3CCC(Oc4cc(F)ccc4Br)CC3)no2)n1 [MK-8245]	-5.48
CCCC1OC2C[C@H]3[C@@H]4CCC5=CC(=O)C=C[C@]5(C)[C@H]4C(O)C[C@]3(C)[C@]2(C(=O)CO)O1 (some centres not stated) [Budesonide]	-4.68
CN1CCN(c2cccc(Nc3nc4c(-c5ccc([S+](C)(=O)[O-])cc5)cccn4n3)c2)CC1	-4.78
C[C@]12CCC(=O)C=C1CC[C@@H]1[C@@H]2CC[C@@]2(C)[C@H]1CC[C@]2(C)O [Methyltestosterone]	-4.42
NC(=O)C1CCCc2c1[nH]c1ccc(Cl)cc21 (configuration not stated) [EX-527]	-4.78
CC(C(=O)O)c1cccc(C(=O)c2ccccc2)c1 (configuration not stated) [Ketoprofen]	-5.03
CN1\N=C(N)/C2=C[N]([C@@H]3O[C@H](CO[P](O)(O)=O)[C@@H](O)[C@H]3O)C4=C2C1=NC=N4 [Triciribine phosphate]	-6.53
CC(C)n1c(/C=C/[C@H](O)C[C@H](O)CC(=O)[O-])c(-c2ccc(F)cc2)c2ccccc21 [Fluvastatin]	-5.38
CN1C(=O)C(=C\C2=C1N=C(NC3=CC=CC(=C3)C(O)=O)N=C2)/C4=C(Cl)C=CC=C4Cl	-5.78
COC1=CC=CC(=C1N)\C2=C\C(=O)C3=C(O2)C=CC=C3	-4.68

SMILES	AC50 for growth inhibition (log10 M)
COCCOc1ccc2c(c1)ncn2-c1ccc2cccc(N3CCC(N)CC3)c2n1	-5.23
CC(C)c1cc(C(C)C)c(CC(=O)N[S+](=O)([O-])Oc2c(C(C)C)cccc2C(C)C)c(C(C)C)c1 [Avasimibe]	-4.78
CCc1nc(-c2cccc(C)c2)c(-c2ccnc(NC(=O)c3ccccc3)c2)s1 [TAK-715]	-4.78
CCC(C)(C)C(=O)O[C@H]1C[C@@H](C)\C=C2\C=C/[C@H](C)[C@H](CC[C@@H]3C[C@@H](O)CC(=O)O3)[C@@H]12 [Simvastatin]	-4.78
CCOC(=O)N[C@@H]1CC[C@@H]2[C@@H](C1)C[C@H]1C(=O)O[C@H](C)[C@H]1[C@H]2/C=C/c1ccc(-c2cccc(F)c2)cn1 [Vorapaxar]	-4.78
Cn1cnc(N)c2ncnc1-2 [3-Methyladenine]	-5.28
COC(=O)Nc1nc2cc(C(=O)c3cccs3)ccc2[nH]1 [Nocodazole]	-7.98
COc1cc2c(Nc3ccc(NC(=O)c4ccccc4)cc3)ncnc2cc1OCCCN1CCOCC1	-4.83
Cc1ccc(NC(=O)c2ccc(CN3CCN(C)CC3)cc2)cc1Nc1nc(-c2cccnc2)cs1 [Masitinib]	-4.93
O=C1Cc2cc(CCN3CCN(c4nsc5ccccc45)CC3)c(Cl)cc2N1 [Ziprasidone hydrochloride]	-4.63
Cc1cccc(-c2nn(C(=S)Nc3ccccc3)cc2-c2ccnc3ccccc23)n1 [A 83-01]	-4.73
Oc1ccc(C2CCN(c3ccnc4ccccc34)CC2)cc1O	-4.63
CN(C)C1=C(Br)C=C(C=C1)C\2NC3=C(\C4=C2C(=O)CC(C)(C)C4)C5=CC=CC=C5C=C3 (configuration not stated) [GLS968]	-5.23
Oc1nc(-c2ccc(C(F)(F)F)cc2)nc2c1CSCC2 [NVP-XAV-939]	-4.68
CC1(C)Cc2c(-c3ccccc3)c(-c3ccc(Cl)cc3)c(CC(=O)O)n2C1 [Licofelone]	-4.73
O=C1N\2CCC3=C([NH]C4=C3C=CC=C4)C2=N/C5=CC=CC=C15 [Rutaecarpine]	-4.78
COc1ccc(CCC(=O)Nc2nc3ccc(Cl)cc3s2)cc1OC	-4.63
CC(C)c1c(C(=O)Nc2ccccc2)c(-c2ccccc2)c(-c2ccc(F)cc2)n1CC[C@@H](O)C[C@@H](O)CC(=O)[O-] [Atorvastatin calcium]	-4.68
COC1=CC=C2[C@H]3CC[C@]4(C)[C@H](CC[C@H]4[C@@H]3CCC2=C1)NCCCCCCN5C(=O)\C=C/C5=O	-4.73
Cc1cc(-c2ccc(CC(=O)Nc3ccc(-c4cccnc4)cc3)cc2)ccn1 [Wnt-C59]	-4.78
COc1cc(C)c(/C=C/C(C)=C/C=C/C(C)=C/C(=O)O)c(C)c1C [Acitretin]	-4.73
Cc1ccnc(N[S+](=O)([O-])c2ccc(NC(=O)Nc3ccc([S+](=O)([O-])Nc4nccc(C)n4)cc3)cc2)n1	-4.68
C[C@@H]1[C@H]\2[C@H](O)[C@H]3[C@H](N(C)C)\C(=C(C(N)=O)/C(=O)[C@@]3(O)\C(=C2C(=O)C4=C(O)C=CC=C14)O)O [Doxycycline]	-4.68

SMILES	AC50 for growth inhibition (log10 M)
C[S+](=O)([O-])c1cc(F)cc2c3c(n(Cc4ccc(Cl)cc4)c12)[C@@H](CC(=O)O)CC3 [Laropiprant]	-5.43
C=C1C(=O)OC(CCCCCCCC)C1C(=O)O (configuration not stated) [C-75]	-4.58
CC[C@@H]1C(=O)N(C)c2cnc(Nc3ccc(C(=O)NC4CCN(C)CC4)cc3OC)nc2N1C1CCCC1 [BI-2536]	-7.28
Clc1ccc(C(Cn2ccnc2)OCc2ccc(Sc3ccccc3)cc2)c(Cl)c1 (configuration not stated) [Fenticonazole nitrate]	-4.73
CC[C@]12\C=C/CN3CC[C@]4([C@@H](N(C)C5=CC(=C(C=C45)[C@]6(C[C@H]7C[C@H](CN(C7)CC8=C6[NH]C9=C8C=CC=C9)C(C)(F)F)C(=O)OC)OC)[C@](O)([C@@H]1OC(C)=O)C(=O)OC)[C@H]23 [Vinflunine]	-7.83
NC(=O)N/N=C/c1ccc([N+](=O)[O-])o1 [Nitrofurazone]	-4.68
CO[C@H]1O[C@@H]2O[C@@]3(C)CC[C@H]4[C@H](C)CC[C@@H]([C@H]1C)[C@@]24OO3 [Artemether]	-5.98
CN(C)[C@H]\1[C@@H]2[C@@H](O)[C@@H]\3C(=C)C4=C(C(=CC=C4)O)C(=O)C3=C(\O)[C@@]2(O)C(=O)\C(=C1O)C(N)=O [Methacycline hydrochloride]	-4.73
Cc1nc(N)sc1-c1ccnc(Nc2ccc(N3CCOCC3)cc2)n1 [CYC-116]	-4.63
C[C@@H]1CCO[C@H]2CN\3/C=C(/C(=O)NCC4=C(F)C=C(F)C=C4)C(=O)\C(=C3C(=O)N12)O [Dolutegravir]	-4.78
CNC(=O)N1\N=C(\C2=CC=C(N)C=C2)C3=CC4=C(OCO4)C=C3CC1C (configuration not stated)	-5.08
N#Cc1ccc(Oc2ccc3c(c2)COB3O)cc1 [AN2728]	-4.73
C/C=C(/C)C(=O)O[C@H]1C(C)=C[C@]23C(=O)[C@@H](C=C(CO)[C@@H](O)[C@]12O)[C@H]1[C@@H](C[C@H]3C)C1(C)C [Ingenol mebutate]	-7.18
C\C1=C(\C=C(\C#N)C(=O)N1)C2=CC=NC=C2 [Milrinone]	-4.73
C[C@H]1[C@H](O)O[C@@H]2O[C@@]3(C)CC[C@H]4[C@H](C)CC[C@@H]1[C@@]24OO3 [Artenimol]	-5.68
Cc1ccc(-c2cc(C(F)(F)F)nn2-c2ccc([S+](N)(=O)[O-])cc2)cc1 [Celecoxib]	-4.78
CC[C@H](CO)Nc1nc(NCc2ccccc2)c2ncn(C(C)C)c2n1 [Seliciclib]	-4.68
CC(C)c1noc(N2CCC(COc3ccc(-c4ccc([S+](C)(=O)[O-])cc4)nc3)CC2)n1	-5.23
Nc1ccccc1NC(=O)c1ccc(CNc2nccc(-c3cccnc3)n2)cc1 [Mocetinostat]	-5.93
NC(=O)c1ccc(-c2nc(-c3ccc4c(c3)OCCO4)c(-c3ccccn3)[nH]2)cc1 [D-4476]	-4.73
C/C=C/C(=O)N(CC)c1ccccc1C [Crotamiton]	-4.98
